Laboratory results as given in paper PMC9604868, “Evaluation of Possible Antioxidant, Anti-Hyperglycaemic, Anti-Alzheimer and Anti-Inflammatory Effects of Teucrium polium Aerial Parts (Lamiaceae)” (Life, 2022).
pIC50: −log10 of the molar value.

What was measured:
[1] = DPPH radical scavenging assay; conditions: means ± SD (n = 3)
Method: (§1) The antioxidant activity of T. polium L. hydroalcoholic extract was achieved using several analytical tests distinguished by their mechanism of reaction 2-diphenyl-1-picrylhydrazyl (DPPH), β-carotene and galvinoxyl radical (GOR). The reaction was initiated by mixing 0.5 mL of hydroalcoholic extract with 1 mL of DPPH (0.2 mM), β-carotene (0.5 mM) and GOR (0.1 mM) using the protocols described in references. The mixtures were left in the dark at room temperature for approximately 30 min; after that, the absorbance was measured at λmax: […], 490 and 428 nm for the mentioned tests, respectively, against a blank using a UV-vis spectrophotometer apparatus (Shimadzu UV-2450, Japan). The inhibition percentage was calculated as follows: I% = ((A0 − A1)/A0) × 100, where A0 is the absorbance of DPPH, β-carotene and GOR solutions without extracts, while A1 were the absorbance of the sample. The activity results for all tests were expressed as IC50 (half maximal inhibitory concentration) values, which have been calculated (using Microsoft Excel 2016) from an antiradical linear graph formed by the X axis, which represented extract concentration, and the Y axis, which represented their relative inhibition percentage. In addition, the antioxidant activity results were compared with three standards, BHA, BHT and vitamin, as represented in Table 1.

β-carotene assay = conditions: means ± SD (n = 3)
Method: as §1

[2] = system: carrageenan-induced paw edema; experiment: Carrageenan-induced hind paw edema; conditions: mice, gavage, extract 10% 0.5 mL or diclofenac 10 mg/kg; for % Oedema Reduction: versus control
rat renal medulla COX = system: rat renal medulla COX; design: method as in PMID 33802084; conditions: cited from earlier work

In the case of COc1ccc(O)c(C(C)(C)C)c1 [BHA, butylated hydroxyanisole], the “DPPH IC50” value [1] was 6.14 ± 0.41 µg/mL and the “β Carotene IC50” value (β-carotene assay) was 1.05 ± 0.03 µg/mL.

With Cc1cc(C(C)(C)C)c(O)c(C(C)(C)C)c1 [BHT, 2,6-ditert-butyl-4-methylphenol] the “DPPH IC50” value [1] was 12.99 ± 0.41 µg/mL and the “β Carotene IC50” value (β-carotene assay) was 0.91 ± 0.01 µg/mL.

For O=C(O)Cc1ccccc1Nc1c(Cl)cccc1Cl [Diclofenac sodium], the “% Oedema” value ([2]; 4 h after carrageenan) was 20.42%, the “Average Paw Weight (g) Left” value ([2]; carrageenan-injected paw, 4 h) was 0.171 ± 0.009 g and the “Average Paw Weight (g) Right” value ([2]; uninjected paw, 4 h) was 0.142 ± 0.001 g. The “% Oedema Reduction” value ([2]; 4 h after carrageenan) was 52.97% and the “% Oedema Reduction” value ([2]; 4 h after carrageenan, listed as diclofenac sodium) was 52.97%.

For O=c1cc(-c2ccc(O)c(O)c2)oc2cc(O)cc(O)c12 [Luteolin (7), luteolin], the pIC50 (rat renal medulla COX) is listed as 3.89 to 4.00.

With Cc1c(C)c2c(c(C)c1O)CC[C@@](C)(CCC[C@H](C)CCC[C@H](C)CCCC(C)C)O2 [Vitamin E, α-Tocopherol] the “DPPH IC50” value [1] was 15.81 ± 0.54 µg/mL.
